Assay results as given in US12304890B2, “R-type pyridyloxycarboxylic acid, salt and ester derivative thereof, and preparation method therefor, and herbicidal composition and application thereof” (Qingdao Kingagroot Chemical Compound Co., Ltd., priority 2018, dated 2025).

What was measured:
Format in all cases: in vivo
[1] = system: Echinochloa crusgalli; experiment: Post-emergence test experiment, Echinochloa crusgalli; details: for Echinochloa crusgalli, activity level (growth inhibition rate): 3 weeks; for Activity level (growth inhibition rate), Echinochloa crusgalli: 1000 g a.i./ha, 3 weeks in greenhouse, fresh weight inhibition
In short: (§1)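 Test compounds dissolve in acetone, receive tween-80 and a methyl oleate emulsible concentrate synergist (1.5 liters per hectare), then are diluted in water and sprayed onto 2-3 leaf stage plants. After 3 weeks of greenhouse culture, fresh weight inhibition is determined.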

[2] = system: Semen Euphorbiae Lathyridis; experiment: Post-emergence test experiment, Semen Euphorbiae Lathyridis; details: 3 weeks
Procedure: (§2) The above described growth inhibition rate is fresh weight inhibition rate.
(§3) Post-emergence test experiment: Monocotyledonous and dicotyledonous weed seeds and main crop seeds (i. e. wheat, corn, rice, soybean, cotton, oilseed, millet and sorghum.) were put into a plastic pot loaded with soil. Then covered with 0.5-2 cm soil, the seeds were allowed to grow in good greenhouse environment. The test plants were treated at 2-3 leaf stage 2 weeks after sowing. The test compounds of the invention were dissolved with acetone respectively, then added with tween-80, and using 1.5 liters per hectare of an emulsible concentrate of methyl oleate as a synergist, and diluted by certain amount of water to certain concentration. The solution was sprayed to the plants with a sprayer. Then the plants were cultured for 3 weeks in the greenhouse, and the experiment result of weed controlling effect was listed in tables 4-5.

[3] = system: Digitaria sanguinalis; experiment: Post-emergence test experiment, Digitaria sanguinalis; details: for Digitaria sanguinalis, activity level (growth inhibition rate): 3 weeks; for Activity level (growth inhibition rate), Digitaria sanguinalis: 1000 g a.i./ha, 3 weeks in greenhouse, fresh weight inhibition
In short: as §1

[4] = system: Monocotyledonous and dicotyledonous weed seeds and main crop seeds; experiment: Post-emergence test experiment, other weeds and crops (Table 4, 1000 g a.i./ha); details: 3 weeks in greenhouse, fresh weight inhibition
In short: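 Growth inhibition is scored on fresh weight. Spray solutions were made in acetone with tween-80, diluted in water, plus 1.5 L/ha methyl oleate emulsible concentrate. Plants from greenhouse-grown weed and crop seeds were treated post-emergence at 2-3 leaves, 2 weeks after sowing.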

[5] = system: rice; experiment: Post-emergence test experiment, rice (crop selectivity); details: 3 weeks
Procedure: as §2, §3

[6] = system: Monochoria vaginalis; experiment: Weed control effect evaluation in rice field; details: paddy pot, 0.5 leaf stage, 50 g a.i./ha, 14 days; weed resistant to pyrazosulfuron-ethyl and penoxsulam
Procedure: Rice field soil was loaded into a 1/1,000,000 ha pot. The seeds of Monochoria vaginalis were sowed and gently covered with soil, then left to stand still in greenhouse in the state of 0.5-1 cm of water storage. It was kept at 3-4 cm of water storage thereafter. The weeds were treated by dripping the WP or SC water diluents prepared according to the common preparation method of the compounds of the present invention with pipette homogeneously to achieve specified effective amount when Monochoria vaginalis reached 0.5 leaf stage.
The fertility condition of Monochoria vaginalis 14 days and rice 21 days after the treatment of the compound of the invention with the naked eye.

[7] = 200 g a.i./ha, weed resistant to ALS inhibitor and ACCe herbicides
[8] = 200 g a.i./ha, weed resistant to cyhalofop-butyl

Compound	Echinochloa crusgalli, activity level (growth inhibition rate) [1, 7]	Activity level (growth inhibition rate), Echinochloa crusgalli [1]	Semen Euphorbiae Lathyridis, activity level (growth inhibition rate) [2, 8]	Digitaria sanguinalis, activity level (growth inhibition rate) [3, 8]	Activity level (growth inhibition rate), Digitaria sanguinalis [3]	Activity level (growth inhibition rate), Abutilon theophrasti Medic. [4]	Activity level (growth inhibition rate), Galium aparine [4]	Activity level (growth inhibition rate), Monochoria Vaginalis [4]	rice, activity level (growth inhibition rate) ([5]; 200 g a.i./ha)	Echinochloa crusgalli, activity level (growth inhibition rate) ([1]; 100 g a.i./ha, resistant weed)	Echinochloa crusgalli, activity level (growth inhibition rate) ([1]; 400 g a.i./ha, resistant weed)	Semen Euphorbiae Lathyridis, activity level (growth inhibition rate) ([2]; 100 g a.i./ha, resistant weed)	Semen Euphorbiae Lathyridis, activity level (growth inhibition rate) ([2]; 400 g a.i./ha, resistant weed)	Digitaria sanguinalis, activity level (growth inhibition rate) ([3]; 100 g a.i./ha, resistant weed)	Digitaria sanguinalis, activity level (growth inhibition rate) ([3]; 400 g a.i./ha, resistant weed)	rice, activity level (growth inhibition rate) ([5]; 100 g a.i./ha)	rice, activity level (growth inhibition rate) ([5]; 400 g a.i./ha)	Monochoria Vaginalis, activity level 0-5 [6]
CC(C)=NOCCOC(=O)C(C)Oc1nc(F)c(Cl)c(N)c1Cl (centres unmarked) [Compound 2-287]	5 (Level 5: the growth inhibition rate is greater than 85%)	5 (Level 5: the growth inhibition rate is greater than 85%)	5 (Level 5: the growth inhibition rate is greater than 85%)	5 (Level 5: the growth inhibition rate is greater than 85%)	5 (Level 5: the growth inhibition rate is greater than 85%)	5 (Level 5: the growth inhibition rate is greater than 85%)	5 (Level 5: the growth inhibition rate is greater than 85%)	5 (Level 5: the growth inhibition rate is greater than 85%)	0 (Level 0: the growth inhibition rate is less than 5%)	–	–	–	–	–	–	–	–	–
CC(Oc1nc(F)c(Cl)c(N)c1Cl)C(=O)OCC1CCCO1 (centres unmarked) [Compound 2-298]	5 (Level 5: the growth inhibition rate is greater than 85%)	5 (Level 5: the growth inhibition rate is greater than 85%)	5 (Level 5: the growth inhibition rate is greater than 85%)	5 (Level 5: the growth inhibition rate is greater than 85%)	5 (Level 5: the growth inhibition rate is greater than 85%)	5 (Level 5: the growth inhibition rate is greater than 85%)	5 (Level 5: the growth inhibition rate is greater than 85%)	5 (Level 5: the growth inhibition rate is greater than 85%)	–	4 (Level 4: the growth inhibition rate is equal to or greater than 60% and less than 85%)	5 (Level 5: the growth inhibition rate is greater than 85%)	5 (Level 5: the growth inhibition rate is greater than 85%)	5 (Level 5: the growth inhibition rate is greater than 85%)	5 (Level 5: the growth inhibition rate is greater than 85%)	5 (Level 5: the growth inhibition rate is greater than 85%)	0 (Level 0: the growth inhibition rate is less than 5%)	1 (Level 1: the growth inhibition rate is equal to or greater than 5% and less than 20%)	–
COc1cnc(OC)n2nc(NS(=O)(=O)c3c(OCC(F)F)cccc3C(F)(F)F)nc12 [penoxsulam, reference compound]	–	–	–	–	–	–	–	–	–	–	–	–	–	–	–	–	–	1 (Level 1: the growth inhibition rate is equal to or greater than 5% and less than 20%)
